A word on the IC50: it is the concentration that inhibits the measured activity by half. What is called Ki is a dissociation constant, usually derived from enzyme kinetics or from competition with a known ligand. A high value points to lower affinity.

Where only a bound is given, the exact number is not on record here.

Here are results for 15 compounds from ChEMBL document CHEMBL1149924, “Structure activity studies on pseudo-symmetrical HIV-1 protease inhibitors” (Bioorg Med Chem Lett, 1993).

Experiment [1] concerns the target T1, Human immunodeficiency virus type 1 protease (Human immunodeficiency virus 1, UniProt Q72874). Kind of experiment: Inhibitory activity against HIV-1 protease.
The test system of experiment [2] is MT2. Kind of experiment: Compound was evaluated for its inhibitory activity against HIV-1-IIIB infected MT2 cells (human T lymphoid cells). Type of experiment: functional, cell-based.
The target of experiment [3] is T1, Human immunodeficiency virus type 1 protease. As to the kind of experiment: Compound was evaluated for its inhibitory activity in recombinant HIV-l protease.
Experiment [4] shares this target. Kind of experiment: Compound was evaluated for its binding affinity against HIV-1 protease using [125I]-SPA (scintillation proximity assay). (In general: Scintillation proximity formats need no separation of bound from free tracer.)
Experiment [5] has the same target. Kind of experiment: Compound was evaluated for its inhibitory activity against recombinant HIV-1 protease using [125I]-SPA (scintillation proximity assay).

Compound `CCCC[C@H](CC(O)C[C@@H](CCCC)C(=O)N[C@@H](C)C(=O)N[C@@H](C)C(=O)OC)C(=O)N[C@@H](C)C(=O)N[C@@H](C)C(=O)OC` yielded an IC50 in experiment [1] of 75 nM.
On to `CCCC[C@H](CC(O)C[C@@H](CCCC)C(=O)N[C@H](C(=O)N[C@H](C(=O)OC)C(C)C)C(C)C)C(=O)N[C@H](C(=O)N[C@H](C(=O)OC)C(C)C)C(C)C`, for which the IC50 in experiment [1] was 5 nM.
Still for that read-out and setting: under `COC(=O)[C@@H](NC(=O)[C@@H](NC(=O)[C@@H](CC(=O)C[C@@H](Cc1ccccc1)C(=O)N[C@H](C(=O)N[C@H](C(=O)OC)C(C)C)C(C)C)Cc1ccccc1)C(C)C)C(C)C` stands over 10000 nM.
`CC(C)[C@H](NC(=O)[C@H](Cc1ccccc1)CC(O)C[C@@H](Cc1ccccc1)C(=O)N[C@H](C(=O)NCc1nc2ccccc2[nH]1)C(C)C)C(=O)NCc1nc2ccccc2[nH]1`: the IC50 in experiment [2] was determined as 2100 nM; in experiment [1], 10 nM.
For `CC[C@H](C)[C@H](NC(=O)[C@H](Cc1ccccc1)CC(O)C[C@@H](Cc1ccccc1)C(=O)N[C@H](C(=O)NCC1CCc2ccccc2N1)[C@@H](C)CC)C(=O)NCC1CCc2ccccc2N1` (stereo not given in full), the IC50 was 7500 nM in experiment [2] and 1200 nM in experiment [3].
Consider `CC[C@H](C)[C@H](NC(=O)[C@H](Cc1ccccc1)CC(O)C[C@@H](Cc1ccccc1)C(=O)N[C@H](C(=O)NCCN1CCOCC1)[C@@H](C)CC)C(=O)NCCN1CCOCC1`, for which the IC50 is over 10000 nM in experiment [2] and 850 nM in experiment [3].
With `CCCC[C@H](CC(O)(CO)C[C@@H](CCCC)C(=O)N[C@@H](CC(C)C)C(=O)N[C@@H](Cc1ccccc1)C(=O)OC)C(=O)N[C@@H](CC(C)C)C(=O)N[C@@H](Cc1ccccc1)C(=O)OC`, inhibition in experiment [1] was half-maximal at 2000 nM (IC50).
With `COC(=O)[C@@H](NC(=O)[C@@H](NC(=O)[C@H](Cc1ccccc1)CC(O)C[C@@H](Cc1ccccc1)C(=O)N[C@H](C(=O)N[C@H](C(=O)OC)C(C)C)C(C)C)C(C)C)C(C)C`, the 50% inhibitory concentration (IC50) in experiment [2] is 1600 nM; in experiment [1], 5 nM.
For the compound `CCCC[C@H](CC(O)C[C@@H](CCCC)C(=O)N[C@@H](CC(C)C)C(=O)N[C@@H](Cc1ccccc1)C(=O)OC)C(=O)N[C@@H](CC(C)C)C(=O)N[C@@H](Cc1ccccc1)C(=O)OC`, the IC50 in experiment [1] was 90 nM.
On to `CC(C)CNC(=O)[C@H](Cc1ccccc1)CC(O)C[C@@H](Cc1ccccc1)C(=O)NCC(C)C`, for which, in experiment [1], the IC50 was over 1000 nM.
As for `CC[C@H](C)[C@H](NC(=O)[C@H](Cc1ccccc1)CC(O)C[C@@H](Cc1ccccc1)C(=O)N[C@H](C(=O)NCc1nc2ccccc2[nH]1)[C@@H](C)CC)C(=O)NCc1nc2ccccc2[nH]1`, the half-maximal inhibitory concentration (IC50) in experiment [2] turned out to be 400 nM; in experiment [5], 40000 nM; in experiment [1] it was 3 nM. For the same compound, in experiment [4], the Ki came out at 3.5 nM.
In experiment [1], `CCCC[C@H](CC1(C[C@@H](CCCC)C(=O)N[C@@H](CC(C)C)C(=O)N[C@@H](Cc2ccccc2)C(=O)OC)CO1)C(=O)N[C@@H](CC(C)C)C(=O)N[C@@H](Cc1ccccc1)C(=O)OC` had an IC50 of 400 nM.
Consider `COC(=O)[C@H](Cc1ccccc1)NC(=O)[C@@H](NC(=O)[C@H](Cc1ccccc1)CC(O)C[C@@H](Cc1ccccc1)C(=O)N[C@H](C(=O)N[C@@H](Cc1ccccc1)C(=O)OC)C(C)C)C(C)C`, for which the IC50 was 2400 nM in experiment [2] and 10 nM in experiment [1].
The like results for `COC(=O)[C@H](Cc1ccccc1)NC(=O)[C@H](CC(C)C)NC(=O)[C@H](Cc1ccccc1)CC(O)C[C@@H](Cc1ccccc1)C(=O)N[C@@H](CC(C)C)C(=O)N[C@@H](Cc1ccccc1)C(=O)OC` were, in that order, 2300 nM and 30 nM.
Regarding `CC[C@H](C)[C@H](NC(=O)[C@H](Cc1ccccc1)CC(O)C[C@@H](Cc1ccccc1)C(=O)N[C@H](C(=O)NCc1ccccn1)[C@@H](C)CC)C(=O)NCc1ccccn1`, the figures for the IC50 in experiment [2] and in experiment [3] were 500 nM and 450 nM, respectively.
